What was measured:
[1] = tested on: NK-92 natural killer cells; assay: Western blot analysis of Mcl-1, NK-92; assay type: cell-based, Human; settings: through the 48-hour endpoint
Procedure: (§1) Western blot analysis. Cells were plated in a 6-well plate and incubated overnight before the spent media was replaced with drugged media. Drug treatment lasted for indicated durations. Protein was extracted using radioimmunoprecipitation (RIPA) assay buffer (Cat #R0278, Sigma-Aldrich, St. Louis, MO) containing cOmplete™ Mini, EDTA-free Protease Inhibitor Cocktail (Cat #4693159001, Roche, Basel, Switzerland). Denaturing sample buffer was added, samples were boiled at 95 degrees for 10 minutes. An equal amount of protein lysate was electrophoresed through NuPAGE™ 4 to 12%, Bis-Tris, 1.5 mm, Mini Protein Gels (Invitrogen, Waltham, MA, USA) then transferred to PVDF membranes. The PVDF membrane was blocked with 5% non-fat milk (Sigma-Aldrich, St. Louis, MO, USA) in 1× TTBS. Primary antibodies were incubated with the transferred PVDF membrane in blocking buffer at 4° C. overnight. Secondary antibodies used included goat anti-rabbit IgG (H+L) secondary antibody, HRP (Cat #31460, Invitrogen, Waltham, MA, USA) and goat anti-mouse IgG (H+L) secondary antibody, HRP (Cat #31430, Invitrogen, Waltham, MA, USA). Signal was detected using a Syngene Imaging System.
Treating cells from colorectal cancer cell lines with 1 μM 9-ING-41 decreases Surivin, NF-κB p65, and IκBα while increasing PD-L1 levels in, 9-ING-41 treatment of immune cells increases NIK. […]

[2] = tested on: ovarian cancer; settings: cited from earlier work
[3] = tested on: TALL-104 T cells; assay: Western blot analysis, TALL-104; assay type: cell-based, Human
Procedure: as §1
9-ING-41 treatment decreases survival factor expression while increasing PD-L1 levels in colorectal cancer cell lines. To elucidate the mechanism behind the differential effects of 9-ING-41 on either colorectal cancer or immune cells in co-culture and cytokine profiling assays, the inventors performed Western blot analyses on tumor and immune cells treated with 9-ING-41 over a 72-hour time course.
Treating cells from colorectal cancer cell lines with 1 μM 9-ING-41 decreases Surivin, NF-κB p65, and IκBα while increasing PD-L1 levels in, 9-ING-41 treatment of immune cells increases NIK. Western blot analysis of HCT-116 and HT-29 colorectal cancer cells for expression of indicated proteins after increasing durations of 9-ING-41 treatment (0-72 hours). Western blot analysis of TALL-104 T cells for expression of indicated proteins after increasing durations of 9-ING-41 treatment (0-72 hours). […]

[4] = tested on: SW480 tumor cells; assay: Co-culture of NK-92 natural killer cells and SW480 tumor cells; assay type: cell-based, Human
Procedure: (§2) Immune cell co-culture experiments. Co-culture experiments were conducted with GFP+ SW480 or HCT-116 colorectal cancer cells and either NK-92 natural killer cells or TALL-104 T cells in a 48-well plate, in the presence or absence of 9-ING-41. HCT-116 cells were labeled using CellTracker™ Green CMFDA (5-chloromethylfluorescein diacetate), immune cells (NK-92, TALL-104) were labeled using CellTracker™ Blue CMAC Dye (7-amino-4-chloromethylcoumarin), and ethidium homodimer-1 (EthD-1) was used as a marker of cell death (Invitrogen, Thermo Fisher Scientific, Waltham, MA, USA).
Co-culture experiments were conducted with GFP+ SW480 colorectal cancer cells and either NK-92 natural killer cells or TALL-104 T cells at various effector/target ratios in a 48-well plate, in the presence or absence of 9-ING-41.
The inventors co-cultured green fluorescent SW480 tumor cells with NK-92 natural killer cells at a 1:1 effector target cell ratio (E:T) for twenty-four hours and imaged by fluorescence microscopy. Ethidium homodimer was used to visualize dead cells. The inventors obtained photographic images of the co-cultured cells.
An average baseline amount of NK-92-mediated tumor cell killing of about 39% occurred in the absence of drug.

[5] = tested on: SW480 tumor cells; assay: Co-culture of CD8+ donor-derived healthy T cells and SW480 tumor cells; assay type: cell-based, Human
Procedure: Isolation of donor derived CD8+ T cells. An Easy Step Human CD8+ T Cell Isolation Kit was used to isolated CD8+ T cells from a donor PBMC sample via negative selection (Cat #, 17913, Stem Cell Technologies, Vancouver, Canada).
as §2
TALL-104 cells are a human leukemic T cell line. […] Healthy CD8+ T cells were isolated from a donor blood sample consistent with an IRB-approved protocol. A co-culture of GFP+ SW480 tumor cells and Green CM FDA-labeled CD8+ donor-derived healthy T cells was then treated with 9-ING-41 and the % of dead cells out of total cells was quantified after twenty-four hours. […] The data was then normalized, as described earlier.
Pre-treatment with 9-ING-41 sensitizes SW480 tumor cells to immune cell-mediated cell killing. […]

## Cn1cc(C2=C(c3coc4ccc(F)cc34)C(=O)NC2=O)c2cc3c(cc21)OCO3 [9-ING-41]
[1]
  Mcl-1 protein expression: did not observe a significant decrease
[2]
  activity compared with lithium and other ATP-competitive inhibitors such as SB216763: more active
[3]; 0-72 hours
  PD-1 expression: decreased
  Survivin and NIK: surprising increases
[3]; as treatment duration increased
  NF-KB, IKK β, IKBα, pIKBα, and Bcl-2: no significant changes
[4]; IC50 dose, 1:1 E:T, 24 hours
  Natural Killer activity: stimulation of Natural Killer activity
[4]; compared to controls without drug treatment
  natural killer (NK-92) cell killing of colorectal cancer cells: significant increase
[5]; 24 hours, normalized
  tumor cell death in co-cultures with CD8+ donor-derived healthy T cells: Even more impressive tumor cell death
[5]; pre-treatment of tumor cells, 24 hours of co-culture
  tumor cell death after tumor cell pre-treatment, CD8+ T cells: statistically significant increase in tumor cell death
